Test system: human (tumor) Hif2α (EPAS1) mRNA
Assay: Hif2α knockdown in orthotopic RCC tumor bearing mice, single injection of RNAi trigger-delivery polymer conjugate, RT-qPCR (Table 7)
Assay type: in vivo
Details: single tail vein injection, relative to isotonic glucose
Protocol: A pCR3.1 expression vector expressing the reporter gene secreted alkaline phosphatase (SEAP) under the CMV promoter was prepared by directional cloning of the SEAP coding sequence PCR amplified from Clontech's pSEAP2-basic vector. Convenient restriction sites were added onto primers used to amplify the SEAP coding sequence for cloning into the pCR3.1 vector (Invitrogen). The resultant construct pCR3-SEAP was used to create a SEAP-expressing A498 ccRCC cell line. Briefly, pCR3-SEAP plasmid was transfected into A498 ccRCC cells by electroporation following manufacturer's recommendation. Stable transfectants were selected by G418 resistance. Selected A498-SEAP clones were evaluated for SEAP expression and integration stability.
Female athymic nude mice were anesthetized with ˜3% isoflourane and placed in the right lateral decubitus position. A small, 0.5-1 cm, longitudinally abdominal incision in the left flank was made. Using a moist cotton swab, the left kidney was lifted out of the peritoneum and gently stabilized. Just before injection, a 1.0 ml syringe was filled with the cell/Matrigel mixture and a 27 gauge needle catheter was attached to the syringe tip. The filled syringe was then attached to a syringe pump (Harvard Apparatus, model PHD2000) and primed to remove air. The tip of a 27-gauge needle catheter attached to a syringe was inserted just below the renal capsule near the caudal pole and the tip of the needle was then carefully advanced cranially along the capsule 3-4 mm. A 10 μl aliquot of 2:1 (vol:vol) cell/matrigel mixture containing about 300,000 cells was slowly injected into the kidney parenchyma using a syringe pump. The needle was left in the kidney for 15-20 seconds to ensure the injection was complete. The needle was then removed from the kidney and a cotton swab was placed over the injection site for 30 seconds to prevent leakage of the cells or bleeding. The kidney was then gently placed back into the abdomen and the abdominal wall was closed. Serum was collected every 7-14 days after implantation to monitor tumor growth using a commercial SEAP assay kit. For most studies, tumor mice were used 5-6 weeks after implantation, when tumor measurements were typically around 4-8 mm.
RGD targeted HiF2α-RNAi trigger delivery conjugates. Delivery polymers were modified using RGD-PEG-HyNic, RGD-PEG-ACit-PNP, or RDG-PEG-FCitFP-TFP and PEG-dipeptide modifying agents. The indicated amount of polymer 126 or 100A polymer was modified with 8×PEG12-ACit-PABC-PNP/0.5× aldehyde-PEG24-FCit-PABC-PNP (with RGD mimic #1-PEG-HyNic using protocol #1) and the indicated amount of the indicated Hif2α RNAi trigger. Polymer 064 was modified according to protocol 7. Kidney RCC tumor-bearing mice were generated as described and treated with a single tail vein injection of isotonic glucose (G1) or the indicated Hif2α RNAi trigger-delivery polymer conjugate. Mice were euthanized at the indicated time after injection and total RNA was prepared from kidney tumor using Trizol reagent following manufacturer's recommendation. Relative HiF2α mRNA levels were determined by RT-qPCR as described below and compared to mice treated with delivery buffer (isotonic glucose) only.
In preparation for quantitative PCR, total RNA was isolated from tissue samples homogenized in TriReagent (Molecular Research Center, Cincinnati, Ohio) following the manufacturer's protocol. Approximately 500 ng RNA was reverse-transcribed using the High Capacity cDNA Reverse Transcription Kit (Life Technologies). For human (tumor) Hif2α (EPAS1) expression, pre-manufactured TaqMan gene expression assays for human Hif2α (Catalog #4331182) and CycA (PPIA) Catalog #: 4326316E) were used in biplex reactions in triplicate using TaqMan Gene Expression Master Mix (Life Technologies) or VeriQuest Probe Master Mix (Affymetrix). […]

[1] = RNAi trigger 50 μg, polymer 064 125 μg
[2] = RNAi trigger 80 μg, polymer 126 400 μg

Q: For “AD03256 (antisense AUUCAUGAAAUCGUUACGUUGAT; sense AACGUAACGAUUUCAUGAAUT; Hif2alpha RNAi agent antisense strand; modified_base 2,4,6,8,14 /mod_base = “2′-deoxy-2′-fluoro corresponding nucleoside”; modified_base 1,3,5,7,9,10,11,12,13,15,16,17,18,19,20,21,22 /mod_base = “2′-O-methyl corresponding nucleoside”; modified_base 23 /mod_base = “3′-3′-linked nucleotide”; modified_base 2,3,22,23 /mod_base = “5′-phosphorothioate corresponding nucleotide”; Hif2alpha RNAi agent sense strand; modified_base 8,9,10 /mod_base = “2′-deoxy-2′-fluoro corresponding nucleoside”; modified_base 1,2,3,4,5,6,7,11,12,13,14,15,16,17,18,19,20 /mod_base = “2′-O-methyl corresponding nucleoside”)”, which “Relative Expression day 4 (Hif2α mRNA in kidney tumor)” value [1] is on record?
A: Its value is 0.333.

Q: Which “Relative Expression day 4 (Hif2α mRNA in kidney tumor)” value [2] does the source give for “AD01026 (antisense TAAAUCGUUACGUUGACAGTT; sense CUGUCAACGUAACGAUUUAT; Hif2alpha RNAi agent antisense strand; modified_base 2,4,8,10,12,14,16,18 /mod_base = “2′-deoxy-2′-fluoro corresponding nucleoside”; modified_base 3,5,7,9,11,13,15,17,19 /mod_base = “2′-O-methyl corresponding nucleoside”; modified_base 6 /mod_base = “2′-3′ seco corresponding nucleotide”; modified_base 21 /mod_base = “5′-phosphorothioate corresponding nucleotide”; Hif2alpha RNAi agent sense strand; modified_base 1,3,5,7,9,11,13,15,17,19 /mod_base = “2′-deoxy-2′-fluoro corresponding nucleoside”; modified_base 2,4,6,8,10,12,14,16,18 /mod_base = “2′-O-methyl corresponding nucleoside”; modified_b)” here?
A: The value was 0.97.

Q: Which “Relative Expression day 4 (Hif2α mRNA in kidney tumor)” value [1] does the source give for “AD02861 (antisense UUUCAUGAAAUCGUUACGUUG; sense UAUACGUAACGAUUUCAUGAAAT; Hif2alpha RNAi agent antisense strand; modified_base 2,4,6,8,10,14 /mod_base = “2′-deoxy-2′-fluoro corresponding nucleoside”; modified_base 1,3,5,7,9,11,12,13,15,16,17,18,19,20,21 /mod_base = “2′-O-methyl corresponding nucleoside”; modified_base 2,3,20,21 /mod_base = “5′-phosphorothioate corresponding nucleotide”; Hif2alpha RNAi agent sense strand; modified_base 2 modified base = “2′-hydroxy corresponding nucleoside”; modified_base 10,11,12 /mod_base = “2′-deoxy-2′-fluoro corresponding nucleoside”; modified_base 1,3,4,5,6,7,8,9,13,14,15,16,17,18,19,20,21,22 /mod_base = “2′-O-methyl correspon)” here?
A: Its value is 0.103.

Q: How did the “Relative Expression day 4 (Hif2α mRNA in kidney tumor)” value [2] turn out when “AD01029 (antisense TUUCAUGAAAUCGUUACGUTT; sense ACGUAACGAUUUCAUGAAAT; Hif2alpha RNAi agent antisense strand; modified_base 2,4,8,10,12,14,16,18 /mod_base = “2′-deoxy-2′-fluoro corresponding nucleoside”; modified_base 3,5,7,9,11,13,15,17,19 /mod_base = “2′-O-methyl corresponding nucleoside”; modified_base 6 /mod_base = “2′-3′ seco corresponding nucleotide”; modified_base 21 /mod_base = “5′-phosphorothioate corresponding nucleotide”; Hif2alpha RNAi agent sense strand; modified_base 1,3,5,7,9,11,13,15,17,19 /mod_base = “2′-deoxy-2′-fluoro corresponding nucleoside”; modified_base 2,4,6,8,10,12,14,16,18 /mod_base = “2′-O-methyl corresponding nucleoside”; modified_b)” was run?
A: Its value is 0.94.

Q: How did the “Relative Expression day 4 (Hif2α mRNA in kidney tumor)” value [1] turn out when “AD03187 (antisense UGUAAAACAAUUGUGUACUUU; sense AGUACACAAUUGUUUUACAT; Hif2alpha RNAi agent antisense strand; modified_base 2,4,6,8,10,14,16,18 /mod_base = “2′-deoxy-2′-fluoro corresponding nucleoside”; modified_base 1,3,5,7,9,11,12,13,15,17,19,20,21 /mod_base = “2′-O-methyl corresponding nucleoside”; modified_base 2,3,20,21 /mod_base = “5′-phosphorothioate corresponding nucleotide”; Hif2alpha RNAi agent sense strand; modified_base 3,5,7,8,9,11,13,17 /mod_base = “2′-deoxy-2′-fluoro corresponding nucleoside”; modified_base 1,2,4,6,10,12,14,15,16,18,19 /mod_base = “2′-O-methyl corresponding nucleoside”; modified_base 20 /mod_base = “3′-3′-linked nucleotide”; modi)” was run?
A: The value was 1.000.

Q: Which “Relative Expression day 4 (Hif2α mRNA in kidney tumor)” value [1] does the source give for “AD03255 (antisense UUUCAUGAAAUCGUUACGUUGAT; sense AACGUAACGAUUUCAUGAAAT; Hif2alpha RNAi agent antisense strand; modified_base 2,4,6,8,14 /mod_base = “2′-deoxy-2′-fluoro corresponding nucleoside”; modified_base 1,3,5,7,9,10,11,12,13,15,16,17,18,19,20,21,22 /mod_base = “2′-O-methyl corresponding nucleoside”; modified_base 23 /mod_base = “3′-3′-linked nucleotide”; modified_base 2,3,22,23 /mod_base = “5′-phosphorothioate corresponding nucleotide”; Hif2alpha RNAi agent sense strand; modified_base 8,9,10 /mod_base = “2′-deoxy-2′-fluoro corresponding nucleoside”; modified_base 1,2,3,4,5,6,7,11,12,13,14,15,16,17,18,19,20 /mod_base = “2′-O-methyl corresponding nucleoside”)” here?
A: The value was 0.264.

Q: Which “Relative Expression day 4 (Hif2α mRNA in kidney tumor)” value (RNAi trigger 150 μg, polymer 100A 300 μg) does the source give for “AD01407 (antisense TUUCAUGAAAUCGUUACGUCGGCUAU; sense UAUAUCGACGUAACGAUUUCAUGAAA; Hif2alpha RNAi agent antisense strand; modified_base 25 modified base = “2′-hydroxy corresponding nucleoside”; modified_base 2,4,6,10,12,14,16,18,20 /mod_base = “2′-deoxy-2′-fluoro corresponding nucleoside”; modified_base 3,5,7,9,11,13,15,17,19,21,22,23,24,26 /mod_base = “2′-O-methyl corresponding nucleoside”; modified_base 8 /mod_base = “2′-3′ seco corresponding nucleotide”; modified_base 2,24 /m; Hif2alpha RNAi agent sense strand; modified_base 2,4 modified base = “2′-hydroxy corresponding nucleoside”; modified_base 6,8,10,12,14,16,18,20,22,24,26 /mod_base = “2′-deoxy-2′-fluoro correspondi)” here?
A: Its value is 0.47.

Reference: patent US9976141B2, “Compositions and methods for inhibiting gene expression of Hif2alpha” (Arrowhead Madison Inc., priority 2015, dated 2018)
